Results published in article PMC5062114, “Dual-targeting anti-angiogenic cyclic peptides as potential drug leads for cancer therapy” (Scientific Reports, 2016).
Read-outs that look alike come from different tables or passages of the source. Bridge positions count the residues as written; N and C are the ends. Square brackets hold non-standard residues; d marks the D form. Peptide text beside a SMILES is read from it.

Legend:
[1] = tested on: HUVEC; test: cells
Description: (§1) HUVECs (human umbilical vein endothelial cells) were cultured in EGM™-2 BulletKit™ supplemented with SingleQuots™ (supplements: growth factors, cytokines, antibiotics; Lonza) and 10% FBS (catalog no. FFBS-500; Scientifix). Both HT-29 and MCF-7 cells were cultured in 10% FBS/DMEM (Dulbecco’s Modified Eagle Medium) with 1% penicillin–streptomycin (5000 U/mL; Life Technologies), whereas PC3 cells (prostate cancer cells) were cultured in 10% FBS/RPMI (Roswell Park Memorial Institute) 1640 with 1% penicillin–streptomycin (5000 U/mL; Life Technologies). All cells were maintained at 37 °C in 5% CO2.
(§2) Cell cytotoxicity and proliferation assays were performed using similar methods to those described by Chan et al.[45]. All cells were maintained using the media conditions described above, and passages two to ten were used for all cell lines. For all cell lines, 5.0 × 10^3 cells/well (100 μL) and 1.5 × 10^3 cells/well (100 μL) were used for cell cytotoxicity and cell proliferation assays, respectively. All peptides (10 μL, at final concentrations ranging from 0.05–100 μM) and drugs, which included cilengitide, octreotide and sunitinib (at final concentrations ranging from 0.00001–100 μM), were used in both assays. Triton X-100 (0.1% (v/v); 10 μL) was used as a positive control. Cells were treated with fresh media the day after plating, before the addition of peptides, followed by a subsequent 2-h and 48-h incubation for cell cytotoxicity and cell proliferation, respectively. After different incubation periods, 3-(4, 5-dimethylthiazolyl-2)-2,5-diphenyltetrazolium bromide (MTT) (10 μL; 5 mg/mL in PBS) was added, and cells were incubated for a further 4 h. The supernatant was then removed and 100 μL DMSO added to solubilize formazan salts. Experiments were performed in triplicate. Cell numbers were recorded at 600 nm. All data represent average mean ± SD.

[2] = tested on: MCF-7; test: cells
Description: as §1, §2

[3] = tested on: PC3; test: cells
Description: as §1, §2

[4] = tested on: HT-29; test: cells
Description: as §1, §2

[5] = Peptide stability assay in human serum; details: for stability in human serum over 24 h: RP-HPLC peak height at 215 nm
Description: Figure 6 Chorionallantoic membrane and stability assays. (A) Comparison of blood vessel count of the linear and grafted peptides. Error bars indicate ± SD (n ≥ 6). […] A one-way ANOVA with Dunnett’s post-test using a multiple comparison test was used for statistical analysis. […] All peptides were compared to 0.3 nM VEGF (highlighted in grey), which is represented as 100% blood vessel growth. […] VEGF was used as the positive control, and octreotide and cilengitide as the negative controls. All images were taken with an original magnification of x16 on an Olympus SZX12 dissecting microscope with a light box. DP capture and DP manager software packages were used during image acquisition. (C) This graph illustrates the percentage of peptide remaining over 24 h in the serum stability assay. […] All data are represented as mean ± SD and were recorded in triplicate. Peptides labeled with an asterisk (*) were tested using the same method except with an additional step – dissolving the centrifuged pellet with 8 M guanidinium chloride before RP-HPLC analysis.
The overall procedures used to assess peptide stability are based on those described previously by Chan et al.[18] and Ji et al.[19]. A peptide concentration of 300 μM was used, and time points taken at 0, 2, 4, 8, 16, and 24 h. The stability of sunitinib was also examined using this method, except an additional step was added after the final centrifugation step, whereby the pellet was dissolved in 8 M guanidine hydrochloride (300 μL) prior to analysis with RP-HPLC; this additional step was adapted from Ji et al.[19]. Supernantants were analyzed on an Agilent RP-HPLC using a linear 1%/min gradient of 0–50% solvent B with a 0.3 mL/min Phenomenex column. Peak height was used for integration of data at 215 nm and each experiment was performed in triplicate.

[6] = tested on: HUVEC migration; test: VEGF-mediated HUVEC transwell migration assay; assay type: cell-based, human
Description: Figure 5 Cell migration on VEGF-mediated HUVECs. The percentage of HUVEC migration was analyzed using Prism Version 6 (GraphPad). (A–T) VEGF was used as a positive control with 100% HUVEC migration. All peptides were tested at concentrations ranging from 0.001–50 μM except for cilengitide and octreotide, which were tested in 10-fold dilutions from 10 μM. Peptides were added in the presence of 0.3 nM VEGF (bottom chamber). Data are shown as mean ± SD (n ≥ 3). Data were normalized to the mean VEGF control. P-values are represented as follows: ****p ≤ 0.0001, ***p ≤ 0.001, **p ≤ 0.01, and *p ≤ 0.05.
A cell migration assay was performed as described by Chan et al.[45] HUVECs between passages three and ten were used. Briefly, initial peptide concentrations of 10–500 μM were prepared for all peptides except SFTI-SST-01, MCo-SST-01, SFTI-SST-02, MCo-SST-02, SFTI-PEDF, MCo-PEDF (0.01–500 μM), cilengitide, octreotide, and MCoAA-02 (1 × 10^−7 M–100 μM). To the apical well, 100 μL of 1 × 10^5 cells/well were seeded and 600 μL of medium supplemented with or without 0.3 nM VEGF (Sigma, catalogue no. V7259) was added to the basolateral well. The well containing cells with 0.1% FBS/EGM-2 basal medium was used as a negative control, and the well containing cells with 0.3 nM VEGF was used as a positive control. All peptides were stimulated with 0.3 nM VEGF. Experiments were done in triplicate. […]

[7] = human serum, 300 μM, 24 h, triplicate
[8] = read-out: IC50 ± S.D., 48 hours, HUVEC, cell proliferation inhibition, MTT, 48-h incubation, 1.5 × 10^3 cells/well, triplicate, mean ± SD
[9] = read-out: IC50 ± S.D., 48 hours, MCF-7, cell proliferation inhibition, MTT, 48-h incubation, 1.5 × 10^3 cells/well, triplicate, mean ± SD
[10] = read-out: IC50 ± S.D., 48 hours, PC3, cell proliferation inhibition, MTT, 48-h incubation, 1.5 × 10^3 cells/well, triplicate, mean ± SD
[11] = read-out: IC50 ± S.D., 48 hours, HT-29, cell proliferation inhibition, MTT, 48-h incubation, 1.5 × 10^3 cells/well, triplicate, mean ± SD

Structure (SMILES) | stability in human serum over 24 h [5, 7] | IC50 [1, 8] [µM] | IC50 [2, 9] [µM] | IC50 [3, 10] [µM] | IC50 [4, 11] [µM] | other results
CC(C)[C@H](NC(=O)[C@H](CCCCN)NC(=O)[C@@H](Cc1c[nH]c2ccccc12)NC(=O)[C@@H](N)Cc1ccc(O)cc1)C(=O)O [SST-01, reference compound] (H-Y[dW]KV-OH; N-terminus assumed) | more stable than PEDF |  |  |  |  | IC50 ([1]; 4 h): 57.54 ± 0.04 µM; IC50 ([2]; 4 h): > 100 µM; IC50 ([3]; 4 h): > 100 µM; IC50 ([4]; 4 h): > 100 µM
CCN(CC)CCNC(=O)c1c(C)[nH]c(/C=C2\C(=O)Nc3ccc(F)cc32)c1C [sunitinib, Sunitinib malate, reference compound] |  |  |  |  |  | IC50 ([1]; Homo sapiens, HUVEC, 48 h, read-out: IC50 ± S.D., 48 hours, HUVEC): 19.1 ± 0.46 µM; IC50 ([2]; Homo sapiens, MCF7, 48 h, read-out: IC50 ± S.D., 48 hours, MCF-7): 17.07 ± 0.11 µM; IC50 ([3]; Homo sapiens, PC-3, 48 h, read-out: IC50 ± S.D., 48 hours, PC3): 16.2 ± 0.26 µM; IC50 ([4]; Homo sapiens, HT-29, 48 h, read-out: IC50 ± S.D., 48 hours, HT-29): 1.43 ± 0.24 µM; inhibition at 10 µM ([6]; Homo sapiens, HUVEC, 10 μM, 0.3 nM VEGF): 100%
CC[C@H](C)[C@@H]1NC(=O)[C@@H]2CSSC[C@@H]3NC(=O)CNC(=O)[C@H](Cc4ccccc4)NC(=O)[C@@H]4CCCN4C(=O)[C@H](CCC(N)=O)NC(=O)[C@H](CC(N)=O)NC(=O)[C@H](CC(C)C)NC(=O)[C@H](Cc4c[nH]cn4)NC(=O)[C@H](Cc4ccc(O)cc4)NC(=O)CNC(=O)[C@@H]4CSSC[C@H](NC(=O)[C@H](CC(=O)O)NC(=O)[C@H](CO)NC(=O)[C@H](CC(=O)O)NC(=O)[C@H](CCCNC(=N)N)NC(=O)[C@H](CCCNC(=N)N)NC(=O)[C@H](CSSC[C@H](NC1=O)C(=O)N[C@@H](CCCNC(=N)N)C(=O)N[C@@H](Cc1ccc(O)cc1)C(=O)N[C@H](Cc1c[nH]c5ccccc15)C(=O)N[C@@H](CCCCN)C(=O)N[C@@H](C(C)C)C(=O)N4)NC(=O)[C@H](CCCCN)NC(=O)[C@H](CCCCN)NC(=O)[C@H](CC(C)C)NC(=O)[C@H]([C@@H](C)CC)NC(=O)[C@H](CCCCN)NC(=O)[C@@H]1CCCN1C3=O)C(=O)N1CCC[C@H]1C(=O)NCC(=O)N[C@@H](C)C(=O)N2 [MCoAA-02] (cyclo(ACICRY[dW]KVCGYHLNQPFGCPKILKKCRRDSDCPG); disulfide 2-20, 4-27, 10-33) | stable | 27.06 ± 0.06 | > 100 | 35.44 ± 0.13 | 19.75 ± 0.07 | percentage remaining in human serum at 24 h, excess over sunitinib ([5]; human serum, 300 μM, 24 h, pellet dissolved in 8 M guanidine hydrochloride, RP-HPLC 215 nm, triplicate): approximately 20%; remaining at 24 h, 300 μM ([5]; human, serum): > 75%
CC[C@H](C)[C@@H]1NC(=O)[C@@H]2CSSC[C@@H]3NC(=O)CNC(=O)[C@H](CCCNC(=N)N)NC(=O)[C@H](CCCNC(=N)N)NC(=O)[C@H](CCCNC(=N)N)NC(=O)[C@H](CCCCN)NC(=O)[C@H](CCCNC(=N)N)NC(=O)[C@H](CCCNC(=N)N)NC(=O)CNC(=O)[C@@H]4CSSC[C@H](NC(=O)[C@H](CC(=O)O)NC(=O)[C@H](CO)NC(=O)[C@H](CC(=O)O)NC(=O)[C@H](CCCNC(=N)N)NC(=O)[C@H](CCCNC(=N)N)NC(=O)[C@H](CSSC[C@H](NC1=O)C(=O)N[C@@H](CCCNC(=N)N)C(=O)NCC(=O)N[C@@H](CC(N)=O)C(=O)NCC(=O)N[C@@H](Cc1ccc(O)cc1)C(=O)N4)NC(=O)[C@H](CCCCN)NC(=O)[C@H](CCCCN)NC(=O)[C@H](CC(C)C)NC(=O)[C@H]([C@@H](C)CC)NC(=O)[C@H](CCCCN)NC(=O)[C@@H]1CCCN1C3=O)C(=O)N1CCC[C@H]1C(=O)NCC(=O)N[C@@H](C)C(=O)N2 [MCo-polyR-L6] (cyclo(ACICRGNGYCGRRKRRRGCPKILKKCRRDSDCPG); disulfide 2-19, 4-26, 10-32) |  | 34.95 ± 0.03 | > 100 | > 100 | 52.89 ± 0.11 | 
CC[C@H](C)[C@@H]1NC(=O)[C@@H]2CSSC[C@@H]3NC(=O)[C@H](C(C)C)NC(=O)CNC(=O)CNC(=O)[C@H](CC(=O)O)NC(=O)[C@H](CO)NC(=O)CNC(=O)[C@H](CO)NC(=O)CNC(=O)[C@@H]4CSSC[C@H](NC(=O)[C@H](CC(=O)O)NC(=O)[C@H](CO)NC(=O)[C@H](CC(=O)O)NC(=O)[C@H](CCCNC(=N)N)NC(=O)[C@H](CCCNC(=N)N)NC(=O)[C@H](CSSC[C@H](NC1=O)C(=O)N[C@@H](CCCNC(=N)N)C(=O)N[C@@H](Cc1ccc(O)cc1)C(=O)N[C@H](Cc1c[nH]c5ccccc15)C(=O)N[C@@H](CCCCN)C(=O)N[C@@H](C(C)C)C(=O)N4)NC(=O)[C@H](CCCCN)NC(=O)[C@H](CCCCN)NC(=O)[C@H](CC(C)C)NC(=O)[C@H]([C@@H](C)CC)NC(=O)[C@H](CCCCN)NC(=O)[C@@H]1CCCN1C3=O)C(=O)N1CCC[C@H]1C(=O)NCC(=O)N[C@@H](C)C(=O)N2 [MCo-SST-01] (cyclo(ACICRY[dW]KVCGSGSDGGVCPKILKKCRRDSDCPG); disulfide 2-19, 4-26, 10-32 (inferred); ring closure inferred) |  | 17.12 ± 0.05 | > 100 | 85.44 ± 0.08 | 74.13 ± 0.07 | IC50 ([6]; transwell, 0.3 nM VEGF in bottom chamber, normalized to VEGF control = 100% migration, n ≥ 3, read-out: concentration giving 50% inhibition of HUVEC migration): 0.005 µM
CC[C@H](C)[C@@H]1NC(=O)[C@@H]2CCCN2C(=O)[C@@H]2CCCN2C(=O)[C@H]([C@@H](C)CC)NC(=O)[C@H](CO)NC(=O)[C@H](CCCCN)NC(=O)[C@H]([C@@H](C)O)NC(=O)[C@@H]2CSSC[C@H](NC1=O)C(=O)N[C@@H](Cc1ccc(O)cc1)C(=O)N[C@H](Cc1c[nH]c3ccccc13)C(=O)N[C@@H](CCCCN)C(=O)N[C@@H](C(C)C)C(=O)N2 [SFTI-SST-01] (cyclo(CTKSIPPICY[dW]KV); disulfide 1-9) |  | 18.32 ± 0.05 | 46.07 ± 0.05 | > 100 | 45.38 ± 0.03 | 
